In PubChem BioAssay AID180 (DTP/NCI, 2004):
Values joined by “and” are separate entries in the source; they are usually repeats but may differ in a detail not shown here. Identical values can stand only once.

Tested on: BDF1 mice, Adenocarcinoma 755 s.c., tumor weight T/C
Assay: NCI In Vivo Anticancer Drug Screen. Data for tumor model Adenocarcinoma 755 (subcutaneous) in B6D2F1 (BDF1) mice
Conditions: endpoint: mean tumor weight, higher = larger tumour
Procedure, shortened: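 In vivo antitumor screen on a transplantable tumor line. Result equals the measure in compound-treated animals divided by the same measure in vehicle controls.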

[1] = dose: 3.0 mg/kg/injection, schedule: Q01DX011 (ip), vehicle: carboxymethylcellulose (CMC)
[2] = dose: 30.0 mg/kg/injection, schedule: Q01DX011 (ip), vehicle: carboxymethylcellulose (CMC)
[3] = dose: 25.0 mg/kg/injection, schedule: Q01DX011 (ip), vehicle: methylcellulose (MC)
[4] = dose: 75.0 mg/kg/injection, schedule: Q01DX011 (ip), vehicle: methylcellulose (MC)
[5] = dose: 112.0 mg/kg/injection, schedule: Q01DX011 (ip), vehicle: carboxymethylcellulose (CMC)
[6] = dose: 112.0 mg/kg/injection, schedule: Q01DX011 (ip), vehicle: saline

Question: Which results are given for `Nc1ccc2cc(S(=O)(=O)O)cc(O)c2c1N=Nc1ccc(NC(=O)c2ccc(C(=O)Nc3ccc(N=Nc4c(N)ccc5cc(S(=O)(=O)O)cc(O)c45)c(S(=O)(=O)O)c3)cc2)cc1S(=O)(=O)O`?
Answer: T/C [1]: 100 % of control; T/C (dose: 7.0 mg/kg/injection, schedule: Q01DX011 (ip), vehicle: carboxymethylcellulose (CMC)): 45 % of control; T/C (dose: 15.0 mg/kg/injection, schedule: Q01DX011 (ip), vehicle: carboxymethylcellulose (CMC)): 56 % of control; T/C [2]: 48 % of control

Question: `NC(=O)CF` was tested. Which T/C (dose: 2.5 mg/kg/injection, schedule: Q01DX011 (ip), vehicle: other) did it give?
Answer: 72 % of control

Question: Which T/C (dose: 14.0 mg/kg/injection, schedule: Q01DX011 (ip), vehicle: other) does the source give for `N#CCCn1cnc2c(=S)nc[nH]c21` here?
Answer: 89 % of control

Question: For `Cn1c(=O)c2[nH]c(CCl)nc2n(C)c1=O`, which T/C [3] is on record?
Answer: 86 % of control

Question: Which T/C [3] does the source give for `Cn1c(=O)c2c(nc(/N=C/c3ccccc3)n2C)n(C)c1=O` here?
Answer: 51 % of control

Question: Which results are given for `NS(=O)(=O)c1ncc2[nH]cnc2n1`?
Answer: T/C (dose: 225.0 mg/kg/injection, schedule: Q01DX011 (ip), vehicle: carboxymethylcellulose (CMC)): 111 % of control; T/C (dose: 450.0 mg/kg/injection, schedule: Q01DX011 (ip), vehicle: carboxymethylcellulose (CMC)): 82 % of control

Question: How did the T/C (dose: 37.5 mg/kg/injection, schedule: Q01DX011 (ip), vehicle: methylcellulose (MC)) turn out when `Nc1ncnc2c1ncn2CCCl` was run?
Answer: 84 % of control

Question: What about the T/C [4] of the same compound?
Answer: 31 % of control

Question: `Cc1cnc(Cl)nc1Sc1nc(N)nc2nc[nH]c12` was tested. Which T/C (dose: 0.5 mg/kg/injection, schedule: Q01DX011 (ip), vehicle: methylcellulose (MC)) did it give?
Answer: 56 % of control

Question: And the T/C (dose: 0.75 mg/kg/injection, schedule: Q01DX011 (ip), vehicle: carboxymethylcellulose (CMC))?
Answer: 31 % of control

Question: What about the T/C (dose: 1.0 mg/kg/injection, schedule: Q01DX011 (ip), vehicle: carboxymethylcellulose (CMC)) of the same compound?
Answer: 31 % of control and 38 % of control

Question: And the T/C (dose: 1.0 mg/kg/injection, schedule: Q01DX011 (ip), vehicle: methylcellulose (MC))?
Answer: 52 % of control

Question: And the T/C (dose: 1.5 mg/kg/injection, schedule: Q01DX011 (ip), vehicle: carboxymethylcellulose (CMC))?
Answer: 11 % of control

Question: What about the T/C [1] of the same compound?
Answer: 8 % of control and 11 % of control

Question: And the T/C (dose: 3.0 mg/kg/injection, schedule: Q01DX011 (ip), vehicle: methylcellulose (MC))?
Answer: 35 % of control

Question: What about the T/C (dose: 6.0 mg/kg/injection, schedule: Q01DX011 (ip), vehicle: carboxymethylcellulose (CMC)) of the same compound?
Answer: 8 % of control

Question: With `Nc1nc(SCc2ccccc2[N+](=O)[O-])c2ncn(C3OC(CO)C(O)C3O)c2n1` (stereo unspecified) as the compound, how does the T/C (dose: 12.5 mg/kg/injection, schedule: Q01DX011 (ip), vehicle: methylcellulose (MC)) read?
Answer: 21 % of control

Question: What about the T/C [3] of the same compound?
Answer: 7 % of control

Question: And the T/C (dose: 50.0 mg/kg/injection, schedule: Q01DX011 (ip), vehicle: methylcellulose (MC))?
Answer: 2 % of control

Question: What does the source list for `CCOC(=O)C1=C(C)NC(C)=C(C(=O)OCC)C1C`?
Answer: T/C (dose: 31.2 mg/kg/injection, schedule: Q01DX011 (ip), vehicle: other): 85 % of control; T/C (dose: 62.5 mg/kg/injection, schedule: Q01DX011 (ip), vehicle: other): 77 % of control; T/C (dose: 125.0 mg/kg/injection, schedule: Q01DX011 (ip), vehicle: other): 79 % of control and 81 % of control

Question: What does the source list for `O=P(N1CC=CCC1)(N1CC1)N1CC1`?
Answer: T/C (dose: 0.03 mg/kg/injection, schedule: Q01DX011 (ip), vehicle: saline): 75 % of control; T/C (dose: 0.05 mg/kg/injection, schedule: Q01DX011 (ip), vehicle: saline): 81 % of control; T/C (dose: 0.1 mg/kg/injection, schedule: Q01DX011 (ip), vehicle: saline): 114 % of control; T/C (dose: 0.2 mg/kg/injection, schedule: Q01DX011 (ip), vehicle: saline): 100 % of control; T/C (dose: 25.0 micrograms/kg/injection, schedule: Q01DX011 (ip), vehicle: saline): 120 % of control; T/C (dose: 50.0 micrograms/kg/injection, schedule: Q01DX011 (ip), vehicle: saline): 94 % of control; T/C (dose: 100.0 micrograms/kg/injection, schedule: Q01DX011 (ip), vehicle: saline): 114 % of control; T/C (dose: 200.0 micrograms/kg/injection, schedule: Q01DX011 (ip), vehicle: saline): 106 % of control

Question: Which results are given for `Cc1ccc2c(c1)Sc1ccc3ccccc3c1N2`?
Answer: T/C (dose: 12.5 mg/kg/injection, schedule: Q01DX011 (ip), vehicle: carboxymethylcellulose (CMC)): 57 % of control; T/C (dose: 15.0 mg/kg/injection, schedule: Q01DX011 (ip), vehicle: saline): 94 % of control; T/C (dose: 22.0 mg/kg/injection, schedule: Q01DX011 (ip), vehicle: saline): 42 % of control; T/C (dose: 25.0 mg/kg/injection, schedule: Q01DX011 (ip), vehicle: carboxymethylcellulose (CMC)): 27 % of control; T/C (dose: 33.0 mg/kg/injection, schedule: Q01DX011 (ip), vehicle: saline): 36 % of control; T/C (dose: 50.0 mg/kg/injection, schedule: Q01DX011 (ip), vehicle: carboxymethylcellulose (CMC)): 26 % of control and 42 % of control; T/C (dose: 50.0 mg/kg/injection, schedule: Q01DX011 (ip), vehicle: saline): 26 % of control and 51 % of control; T/C (dose: 62.5 mg/kg/injection, schedule: Q01DX011 (ip), vehicle: carboxymethylcellulose (CMC)): 58 % of control; T/C (dose: 75.0 mg/kg/injection, schedule: Q01DX011 (ip), vehicle: carboxymethylcellulose (CMC)): 37 % of control; T/C (dose: 75.0 mg/kg/injection, schedule: Q01DX011 (ip), vehicle: saline): 28 % of control; T/C [5]: 43 % of control; T/C [6]: 14 % of control; T/C (dose: 168.0 mg/kg/injection, schedule: Q01DX011 (ip), vehicle: carboxymethylcellulose (CMC)): 18 % of control and 22 % of control; T/C (dose: 168.0 mg/kg/injection, schedule: Q01DX011 (ip), vehicle: saline): 14 % of control; T/C (dose: 335.0 mg/kg/injection, schedule: Q01DX011 (ip), vehicle: carboxymethylcellulose (CMC)): 10 % of control

Question: Which T/C (dose: 1.25 mg/kg/injection, schedule: Q01DX011 (ip), vehicle: carboxymethylcellulose (CMC)) does the source give for `COC12C(COC(N)=O)C3=C(C(=O)C(C)=C(N)C3=O)N1CC1C2N1C` (stereo unspecified) here?
Answer: 62 % of control

Question: And the T/C (dose: 2.5 mg/kg/injection, schedule: Q01DX011 (ip), vehicle: carboxymethylcellulose (CMC))?
Answer: 52 % of control

Question: And the T/C (dose: 5.0 mg/kg/injection, schedule: Q01DX011 (ip), vehicle: carboxymethylcellulose (CMC))?
Answer: 27 % of control

Question: And the T/C (dose: 10.0 mg/kg/injection, schedule: Q01DX011 (ip), vehicle: carboxymethylcellulose (CMC))?
Answer: 3 % of control and 7 % of control

Question: What does the source list for `Cn1c[n+](C2OC(CO)C(O)C2O)c2nc([O-])[nH]c(=O)c21` (stereo unspecified)?
Answer: T/C [3]: 65 % of control; T/C [4]: 103 % of control; T/C (dose: 225.0 mg/kg/injection, schedule: Q01DX011 (ip), vehicle: methylcellulose (MC)): 44 % of control

Question: What does the source list for `O=C1NC(=O)C(c2ccccc2)(c2ccc(Cl)cc2Cl)N1` (stereo unspecified)?
Answer: T/C (dose: 28.0 mg/kg/injection, schedule: Q01DX011 (ip), vehicle: carboxymethylcellulose (CMC)): 54 % of control; T/C (dose: 28.0 mg/kg/injection, schedule: Q01DX011 (ip), vehicle: saline): 65 % of control; T/C (dose: 56.0 mg/kg/injection, schedule: Q01DX011 (ip), vehicle: carboxymethylcellulose (CMC)): 79 % of control; T/C (dose: 56.0 mg/kg/injection, schedule: Q01DX011 (ip), vehicle: saline): 89 % of control; T/C [5]: 62 % of control; T/C [6]: 64 % of control; T/C (dose: 224.0 mg/kg/injection, schedule: Q01DX011 (ip), vehicle: saline): 24 % of control

Question: With `C/C=C1\CN(C)[C@H]2Cc3c([nH]c4ccccc34)[C@@H](c3cc4[nH]c5c(c4cc3OC)CCN3C[C@H]4C[C@H](CC)[C@H]3[C@@]5(C(=O)OC)C4)C[C@H]1C2C(=O)OC` (stereo partly specified) as the compound, how does the T/C (dose: 30.0 mg/kg/injection, schedule: Q01DX011 (ip), vehicle: water) read?
Answer: 58 % of control

Question: What about the T/C (dose: 35.0 mg/kg/injection, schedule: Q01DX006 (ip), vehicle: water) of the same compound?
Answer: 57 % of control

Question: What about the T/C (dose: 45.0 mg/kg/injection, schedule: Q01DX011 (ip), vehicle: water) of the same compound?
Answer: 41 % of control

Question: What about the T/C (dose: 50.0 mg/kg/injection, schedule: Q01DX006 (ip), vehicle: water) of the same compound?
Answer: 61 % of control and 69 % of control

Question: And the T/C (dose: 70.0 mg/kg/injection, schedule: Q01DX006 (ip), vehicle: water)?
Answer: 51 % of control

Question: What about the T/C (dose: 80.0 mg/kg/injection, schedule: Q01DX006 (ip), vehicle: water) of the same compound?
Answer: 54 % of control

Question: Which results are given for `CSc1nc(N)nc2c1ncn2Cc1ccccc1`?
Answer: T/C [4]: 74 % of control; T/C (dose: 150.0 mg/kg/injection, schedule: Q01DX011 (ip), vehicle: methylcellulose (MC)): 53 % of control; T/C (dose: 300.0 mg/kg/injection, schedule: Q01DX011 (ip), vehicle: methylcellulose (MC)): 64 % of control

Question: What does the source list for `Nc1nc2c([nH]c(=S)n2C2OC(CO)C(O)C2O)c(=O)[nH]1` (stereo unspecified)?
Answer: T/C [2]: 89 % of control; T/C (dose: 60.0 mg/kg/injection, schedule: Q01DX011 (ip), vehicle: carboxymethylcellulose (CMC)): 156 % of control; T/C (dose: 120.0 mg/kg/injection, schedule: Q01DX011 (ip), vehicle: carboxymethylcellulose (CMC)): 112 % of control; T/C (dose: 240.0 mg/kg/injection, schedule: Q01DX011 (ip), vehicle: carboxymethylcellulose (CMC)): 110 % of control
